Test results: patent US20040018500A1, “Methods and systems for analyzing complex biological systems” (priority 2001, published 2004)
Entries after “also recorded” stand apart in the source; their conditions may differ.

Tests used:
Arabidopsis thaliana [1] = assay: MOA1 gene expression profiling (22,000 gene array) of sprayed Arabidopsis; conditions: for extent of gene expression perturbation compared to the other treatments: 1 hr; for No. of Lethal Genes Altered: regulated genes (1 hr) found in list of genes essential for plant growth and development
[2] = test system: Arabidopsis thaliana plants; assay: SOA1 phenotypic analysis of herbicide-treated Arabidopsis plants; assay type: in vivo; conditions: for characteristic symptoms (phenotypic analysis): herbicide-treated Arabidopsis; for Symptom Class: three-week-old Arabidopsis treated with herbicide, phenotypes shown in FIG. 12
Arabidopsis thaliana [3] = assay: MOA1 biochemical (metabolite) profiling by LC-MS and GC-MS of sprayed Arabidopsis; conditions: for commonly regulated (putative stress-related) metabolites: MOA1, 20 minutes and 1 hour after spraying
Arabidopsis plants = conditions: nitrate addition to N-starved Arabidopsis; cited from earlier work
[4] = numeric value standardized to mock treated tissues

## COC(=O)NS(=O)(=O)c1ccc(N)cc1 [Asulam]
Arabidopsis thaliana [1]
  extent of gene expression perturbation compared to the other treatments: fewest gene expression perturbations
  No. of Lethal Genes Altered: 5

## COc1nc(C)nc(NC(=O)NS(=O)(=O)c2ccccc2Cl)n1 [Chlorsulfuron]
[2]
  characteristic symptoms (phenotypic analysis): anthocyanin accumulation in the older leaves accompanied by chlorosis of the newly emerging leaves
  Symptom Class: 4
Arabidopsis thaliana [1]
  No. of Lethal Genes Altered: 8

## CC(C)C1(C)N=C(c2ncccc2C(=O)O)NC1=O (stereo not drawn) [Imazapyr]
[2]
  characteristic symptoms (phenotypic analysis): anthocyanin accumulation in the older leaves accompanied by chlorosis of the newly emerging leaves
  Symptom Class: 4
Arabidopsis thaliana [3]
  commonly regulated (putative stress-related) metabolites: Only a few, if any, stress-related metabolites were observed

## CS(=O)(=O)c1cc(C(F)(F)F)ccc1C(=O)c1cnoc1C1CC1 [Isoxaflutole]
Arabidopsis thaliana [1]
  No. of Lethal Genes Altered: 15
Arabidopsis thaliana [3]; MOA1 metabolite data, early time points
  Alpha-tocopherol levels: not significantly changed relative to the control
Arabidopsis thaliana [3]; MOA1 metabolite data, relative to the control
  tyrosine and phenylalanine levels: up-regulated relative to the control; also recorded: began to accumulate relative to the control after one hour

## O=C(O)c1ccccc1C(=O)Nc1cccc2ccccc12 [Naptalam]
Arabidopsis thaliana [1]
  extent of gene expression perturbation compared to the other treatments: fewest gene expression perturbations
  No. of Lethal Genes Altered: 3

## O=[N+]([O-])O [Nitrate, nitrate]
Arabidopsis plants
  Nitrate Regulation of Glutamate synthetase: ↑
  Nitrate Regulation of Glutamine synthetase(2): ↑
  Nitrate Regulation of MADs Box(2): ↓
  Nitrate Regulation of MYB transcription factor: ↑
  Nitrate Regulation of Malate Dehydrogenase: ↑
  Nitrate Regulation of Nitrate transporter: ↑
  Nitrate Regulation of Phosphate transporter: ↑
  Nitrate Regulation of Transaldolase: ↑
  Nitrate Regulation of Transketolase: ↑

## CNc1cnn(-c2cccc(C(F)(F)F)c2)c(=O)c1Cl [Norfluazon, Norflurazon]
Arabidopsis thaliana [3]
  commonly regulated (putative stress-related) metabolites: Only a few, if any, stress-related metabolites were observed

## C[n+]1ccc(-c2cc[n+](C)cc2)cc1 [Paraquat]
[2]
  characteristic symptoms (phenotypic analysis): rapid and widespread leaf necrosis
  Symptom Class: 7
[2]; [4]
  leafCurling (Dev.): 2
  leafTwisting (Dev.): 0
  leafWidth (Dev.): −1
  matureLeafAnthocyanins (Dev.): 0
  matureLeafChlorosis (Dev.): 1
  matureLeafNecrosis (Dev.): 4
  newLeafAnthocyanins (Dev.): 0
  newLeafChlorosis (Dev.): 1
  newLeafNecrosis (Dev.): 4
  pointedLeaves (Dev.): 1
[2]; score for time to full symptoms at minimum inhibitory concentration
  tMic (Dev.): 2
